Patent US8247211B2, “Glycopeptide antibiotics” (American Cyanamid Company, priority 2001, dated 2012)

Columns and labels:
Assay in all cases: In vitro antibacterial evaluation: minimum inhibitory concentration (MIC), broth dilution method
Assay type in all cases: cell-based
Conditions in all cases: 18 hours at 35° C.
Enterococcus sp. = system: Enterococcus sp.
Method in brief: (§1)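 Susceptibility determined by NCCLS-recommended broth dilution (M7-A2), Muller-Hinton II […]. Concentration span 64-0.06 μg/mL, inoculum 5×10^5 CFU/mL. Isolates include strains resistant to methicillin, penicillin and/or vancomycin.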

Staphylococcus sp. = system: Staphylococcus sp.
Method in brief: as §1

Escherichia coli = system: Escherichia coli
Method in brief: as §1

Streptococcus sp. = system: Streptococcus sp.
Method in brief: as §1

Question: With “β-O-[(Heptylamino)carbonyl]-cyclo[glycyl-β-methylphenylalanyl-O-(4-O-hexopyranosylhexopyranosyl)tyrosyl-3-(2-iminoimidazolidin-4-yl)seryl-3-(3-hexopyranosyl-2-iminoimidazolidin-4-yl)serylseryl] [Example 253a]” as the substance, how does the “MIC Enterococcus avium (GC 4558)” value (Enterococcus sp.; Enterococcus avium (GC 4558)) read?
Answer: 16 µg/mL

Question: What about the “MIC Enterococcus faecalis (ATCC 29212)” value (Enterococcus sp.; Enterococcus faecalis (ATCC 29212)) of the same substance?
Answer: 16 µg/mL

Question: What about the “MIC Enterococcus faecalis (GC 2242)” value (Enterococcus sp.; Enterococcus faecalis (GC 2242)) of the same substance?
Answer: 16 µg/mL

Question: And the “MIC Enterococcus faecalis (GC 2691)” value (Enterococcus sp.; Enterococcus faecalis (GC 2691))?
Answer: 16 µg/mL

Question: And the “MIC Enterococcus faecalis (GC 3059)” value (Enterococcus sp.; Enterococcus faecalis (GC 3059))?
Answer: 32 µg/mL

Question: What about the “MIC Enterococcus faecalis (GC 4552)” value (Enterococcus sp.; Enterococcus faecalis (GC 4552)) of the same substance?
Answer: 32 µg/mL

Question: And the “MIC Enterococcus faecalis (GC 4553)” value (Enterococcus sp.; Enterococcus faecalis (GC 4553))?
Answer: 16 µg/mL

Question: And the “MIC Enterococcus faecalis (GC 4554)” value (Enterococcus sp.; Enterococcus faecalis (GC 4554))?
Answer: 32 µg/mL

Question: What about the “MIC Enterococcus faecalis (GC 6189)” value (Enterococcus sp.; Enterococcus faecalis (GC 6189)) of the same substance?
Answer: 16 µg/mL

Question: What about the “MIC Enterococcus faecium (GC 2243)” value (Enterococcus sp.; Enterococcus faecium (GC 2243)) of the same substance?
Answer: 16 µg/mL

Question: And the “MIC Enterococcus faecium (GC 4556)” value (Enterococcus sp.; Enterococcus faecium (GC 4556))?
Answer: 16 µg/mL

Question: And the “MIC Enterococcus faecium (GC 4557)” value (Enterococcus sp.; Enterococcus faecium (GC 4557))?
Answer: 4 µg/mL

Question: What about the “MIC Enterococcus faecalis (ATCC 29212)” value (Enterococcus sp.; broth dilution, strain ATCC 29212) of the same substance?
Answer: 16 µg/mL

Question: And the “MIC Enterococcus faecalis (GC 2242)” value (Enterococcus sp.; broth dilution, strain GC 2242)?
Answer: 16 µg/mL

Question: And the “MIC Enterococcus faecium (GC 2243)” value (Enterococcus sp.; broth dilution, strain GC 2243)?
Answer: 16 µg/mL

Question: What about the “MIC Enterococcus faecalis (GC 2691)” value (Enterococcus sp.; broth dilution, strain GC 2691) of the same substance?
Answer: 16 µg/mL

Question: What about the “MIC Enterococcus faecalis (GC 3059)” value (Enterococcus sp.; broth dilution, strain GC 3059) of the same substance?
Answer: 32 µg/mL

Question: And the “MIC Enterococcus faecalis (GC 4552)” value (Enterococcus sp.; broth dilution, strain GC 4552)?
Answer: 32 µg/mL

Question: What about the “MIC Enterococcus faecalis (GC 4553)” value (Enterococcus sp.; broth dilution, strain GC 4553) of the same substance?
Answer: 16 µg/mL

Question: And the “MIC Enterococcus faecalis (GC 4554)” value (Enterococcus sp.; broth dilution, strain GC 4554)?
Answer: 32 µg/mL

Question: And the “MIC Enterococcus faecium (GC 4556)” value (Enterococcus sp.; broth dilution, strain GC 4556)?
Answer: 16 µg/mL

Question: And the “MIC Enterococcus faecium (GC 4557)” value (Enterococcus sp.; broth dilution, strain GC 4557)?
Answer: 4 µg/mL

Question: What about the “MIC Enterococcus avium (GC 4558)” value (Enterococcus sp.; broth dilution, strain GC 4558) of the same substance?
Answer: 16 µg/mL

Question: What about the “MIC Enterococcus faecalis (GC 6189)” value (Enterococcus sp.; broth dilution, strain GC 6189) of the same substance?
Answer: 16 µg/mL

Question: And the “MIC Coagulase Negative Staphylococcus (GC 4547)” value (Staphylococcus sp.; Coagulase Negative Staphylococcus (GC 4547))?
Answer: 4 µg/mL

Question: And the “MIC Coagulase Negative Staphylococcus (GC 4548)” value (Staphylococcus sp.; Coagulase Negative Staphylococcus (GC 4548))?
Answer: 4 µg/mL

Question: What about the “MIC Coagulase Negative Staphylococcus (GC 4549)” value (Staphylococcus sp.; Coagulase Negative Staphylococcus (GC 4549)) of the same substance?
Answer: 1 µg/mL

Question: What about the “MIC Coagulase Negative Staphylococcus (GC 4551)” value (Staphylococcus sp.; Coagulase Negative Staphylococcus (GC 4551)) of the same substance?
Answer: 8 µg/mL

Question: What about the “MIC Coagulase Negative Staphylococcus (GC 6257)” value (Staphylococcus sp.; Coagulase Negative Staphylococcus (GC 6257)) of the same substance?
Answer: 1 µg/mL

Question: And the “MIC Staphylococcus aureus (ATCC 29213)” value (Staphylococcus sp.; Staphylococcus aureus (ATCC 29213))?
Answer: 4 µg/mL

Question: What about the “MIC Staphylococcus aureus (GC 1131)” value (Staphylococcus sp.; Staphylococcus aureus (GC 1131)) of the same substance?
Answer: 4 µg/mL

Question: And the “MIC Staphylococcus aureus (GC 3051)” value (Staphylococcus sp.; Staphylococcus aureus (GC 3051))?
Answer: 2 µg/mL

Question: And the “MIC Staphylococcus aureus (GC 3053)” value (Staphylococcus sp.; Staphylococcus aureus (GC 3053))?
Answer: 4 µg/mL

Question: And the “MIC Staphylococcus aureus (GC 4541)” value (Staphylococcus sp.; Staphylococcus aureus (GC 4541))?
Answer: 4 µg/mL

Question: What about the “MIC Staphylococcus aureus (GC 4542)” value (Staphylococcus sp.; Staphylococcus aureus (GC 4542)) of the same substance?
Answer: 4 µg/mL

Question: What about the “MIC Staphylococcus aureus (GC 4544)” value (Staphylococcus sp.; Staphylococcus aureus (GC 4544)) of the same substance?
Answer: 4 µg/mL

Question: And the “MIC Staphylococcus aureus (GC 4545)” value (Staphylococcus sp.; Staphylococcus aureus (GC 4545))?
Answer: 2 µg/mL

Question: What about the “MIC Staphylococcus aureus-SMITH (GC 4543)” value (Staphylococcus sp.; Staphylococcus aureus-SMITH (GC 4543)) of the same substance?
Answer: 2 µg/mL

Question: And the “MIC Staphylococcus haemolyticus (GC 4546)” value (Staphylococcus sp.; Staphylococcus haemolyticus (GC 4546))?
Answer: 4 µg/mL

Question: What about the “MIC Staphylococcus aureus (ATCC 29213)” value (Staphylococcus sp.; broth dilution, strain ATCC 29213) of the same substance?
Answer: 4 µg/mL

Question: What about the “MIC Staphylococcus aureus (GC 1131)” value (Staphylococcus sp.; broth dilution, strain GC 1131) of the same substance?
Answer: 4 µg/mL

Question: What about the “MIC Staphylococcus aureus (GC 3051)” value (Staphylococcus sp.; broth dilution, strain GC 3051) of the same substance?
Answer: 2 µg/mL

Question: What about the “MIC Staphylococcus aureus (GC 3053)” value (Staphylococcus sp.; broth dilution, strain GC 3053) of the same substance?
Answer: 4 µg/mL

Question: What about the “MIC Staphylococcus aureus (GC 4541)” value (Staphylococcus sp.; broth dilution, strain GC 4541) of the same substance?
Answer: 4 µg/mL

Question: And the “MIC Staphylococcus aureus (GC 4542)” value (Staphylococcus sp.; broth dilution, strain GC 4542)?
Answer: 4 µg/mL

Question: And the “MIC Staphylococcus aureus-SMITH (GC 4543)” value (Staphylococcus sp.; broth dilution, strain GC 4543)?
Answer: 2 µg/mL

Question: And the “MIC Staphylococcus aureus (GC 4544)” value (Staphylococcus sp.; broth dilution, strain GC 4544)?
Answer: 4 µg/mL

Question: What about the “MIC Staphylococcus aureus (GC 4545)” value (Staphylococcus sp.; broth dilution, strain GC 4545) of the same substance?
Answer: 2 µg/mL

Question: And the “MIC Staphylococcus haemolyticus (GC 4546)” value (Staphylococcus sp.; broth dilution, strain GC 4546)?
Answer: 4 µg/mL

Question: What about the “MIC Coagulase Negative Staphylococcus (GC 4547)” value (Staphylococcus sp.; broth dilution, strain GC 4547) of the same substance?
Answer: 4 µg/mL

Question: And the “MIC Coagulase Negative Staphylococcus (GC 4548)” value (Staphylococcus sp.; broth dilution, strain GC 4548)?
Answer: 4 µg/mL

Question: What about the “MIC Coagulase Negative Staphylococcus (GC 4549)” value (Staphylococcus sp.; broth dilution, strain GC 4549) of the same substance?
Answer: 1 µg/mL

Question: What about the “MIC Coagulase Negative Staphylococcus (GC 4551)” value (Staphylococcus sp.; broth dilution, strain GC 4551) of the same substance?
Answer: 8 µg/mL

Question: What about the “MIC Coagulase Negative Staphylococcus (GC 6257)” value (Staphylococcus sp.; broth dilution, strain GC 6257) of the same substance?
Answer: 1 µg/mL

Question: What about the “MIC Escherichia coli (ATCC 25922)” value (Escherichia coli; Escherichia coli (ATCC 25922)) of the same substance?
Answer: >64 µg/mL

Question: What about the “MIC Escherichia coli (GC 4559)” value (Escherichia coli; Escherichia coli (GC 4559)) of the same substance?
Answer: >64 µg/mL

Question: And the “MIC Escherichia coli (GC 4560)” value (Escherichia coli; Escherichia coli (GC 4560))?
Answer: 2 µg/mL

Question: And the “MIC Streptococcus agalactiae (GC 4564)” value (Streptococcus sp.; Streptococcus agalactiae (GC 4564))?
Answer: 1 µg/mL

Question: And the “MIC Streptococcus pneumoniae (ATCC 6301)” value (Streptococcus sp.; Streptococcus pneumoniae (ATCC 6301))?
Answer: 0.5 µg/mL

Question: What about the “MIC Streptococcus pneumoniae (GC 1894)” value (Streptococcus sp.; Streptococcus pneumoniae (GC 1894)) of the same substance?
Answer: 0.25 µg/mL

Question: And the “MIC Streptococcus pneumoniae (GC 4565)” value (Streptococcus sp.; Streptococcus pneumoniae (GC 4565))?
Answer: 0.5 µg/mL

Question: And the “MIC Streptococcus pyogenes (GC 4563)” value (Streptococcus sp.; Streptococcus pyogenes (GC 4563))?
Answer: 1 µg/mL

Question: What about the “MIC Streptococcus pneumoniae (ATCC 6301)” value (Streptococcus sp.; broth dilution, strain ATCC 6301) of the same substance?
Answer: 0.5 µg/mL

Question: What about the “MIC Streptococcus pneumoniae (GC 1894)” value (Streptococcus sp.; broth dilution, strain GC 1894) of the same substance?
Answer: 0.25 µg/mL

Question: And the “MIC Streptococcus pyogenes (GC 4563)” value (Streptococcus sp.; broth dilution, strain GC 4563)?
Answer: 1 µg/mL

Question: What about the “MIC Streptococcus agalactiae (GC 4564)” value (Streptococcus sp.; broth dilution, strain GC 4564) of the same substance?
Answer: 1 µg/mL

Question: What about the “MIC Streptococcus pneumoniae (GC 4565)” value (Streptococcus sp.; broth dilution, strain GC 4565) of the same substance?
Answer: 0.5 µg/mL
